{
  "source": "paper PMC6757289",
  "about": "“Design and Characterization of SGK3-PROTAC1, an Isoform Specific SGK3 Kinase PROTAC Degrader” (ACS Chemical Biology, 2019)",
  "test_in_all_cases": "kinase profiling panel",
  "type_in_all_cases": "biochemical",
  "details_in_all_cases": "read-out: % Activity Remaining",
  "key": {"IR": {"target": "IR (Homo sapiens, UniProt P06213)", "sequence (P06213 28-1382)": "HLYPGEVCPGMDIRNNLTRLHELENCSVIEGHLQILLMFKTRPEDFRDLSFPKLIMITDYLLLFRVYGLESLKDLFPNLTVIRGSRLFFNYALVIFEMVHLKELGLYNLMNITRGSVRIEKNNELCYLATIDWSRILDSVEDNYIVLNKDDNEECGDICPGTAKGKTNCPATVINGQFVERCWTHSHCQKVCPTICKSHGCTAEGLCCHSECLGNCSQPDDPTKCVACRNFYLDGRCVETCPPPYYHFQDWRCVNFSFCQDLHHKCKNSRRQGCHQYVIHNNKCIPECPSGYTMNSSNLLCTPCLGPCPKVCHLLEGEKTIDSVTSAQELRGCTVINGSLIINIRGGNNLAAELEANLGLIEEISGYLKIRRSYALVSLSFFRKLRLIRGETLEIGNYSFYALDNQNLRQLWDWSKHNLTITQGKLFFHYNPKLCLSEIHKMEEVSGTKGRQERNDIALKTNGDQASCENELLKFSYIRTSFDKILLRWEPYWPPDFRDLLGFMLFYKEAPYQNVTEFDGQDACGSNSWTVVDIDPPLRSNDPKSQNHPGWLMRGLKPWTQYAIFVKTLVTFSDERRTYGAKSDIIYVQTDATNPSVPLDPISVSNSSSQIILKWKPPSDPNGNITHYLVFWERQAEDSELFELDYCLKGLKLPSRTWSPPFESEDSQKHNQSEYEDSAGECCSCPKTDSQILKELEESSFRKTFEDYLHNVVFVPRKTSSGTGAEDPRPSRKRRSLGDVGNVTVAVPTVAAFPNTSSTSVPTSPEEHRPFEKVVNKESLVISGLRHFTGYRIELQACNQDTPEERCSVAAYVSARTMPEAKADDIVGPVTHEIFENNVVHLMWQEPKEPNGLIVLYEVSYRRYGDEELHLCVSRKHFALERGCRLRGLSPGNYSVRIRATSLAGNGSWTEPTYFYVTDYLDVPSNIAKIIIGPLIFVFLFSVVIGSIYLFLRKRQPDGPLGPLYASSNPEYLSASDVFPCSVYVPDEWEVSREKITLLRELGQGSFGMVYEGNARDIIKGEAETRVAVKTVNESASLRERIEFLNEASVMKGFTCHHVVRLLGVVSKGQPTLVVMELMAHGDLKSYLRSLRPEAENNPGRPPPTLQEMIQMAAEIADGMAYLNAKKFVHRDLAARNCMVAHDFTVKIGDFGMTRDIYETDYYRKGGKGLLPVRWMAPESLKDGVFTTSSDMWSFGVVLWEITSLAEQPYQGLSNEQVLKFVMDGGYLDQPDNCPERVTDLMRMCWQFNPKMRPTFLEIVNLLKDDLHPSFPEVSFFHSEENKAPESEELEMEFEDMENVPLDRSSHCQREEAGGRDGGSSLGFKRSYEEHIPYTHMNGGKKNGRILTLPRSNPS", "excerpt": "(§1) Protein kinase profiling against a Dundee panel of 140 protein kinases was undertaken at the International Centre for Protein Kinase Profiling. The result for each kinase was presented as a mean kinase activity of the reaction taken in triplicate relative to a control sample treated with DMSO. Assay conditions and abbreviations are available at http://www.kinase-screen.mrc.ac.uk."}, "Aurora A": {"target": "T1, Aurora A (Homo sapiens, UniProt O14965)", "T1 sequence (O14965 1-403)": "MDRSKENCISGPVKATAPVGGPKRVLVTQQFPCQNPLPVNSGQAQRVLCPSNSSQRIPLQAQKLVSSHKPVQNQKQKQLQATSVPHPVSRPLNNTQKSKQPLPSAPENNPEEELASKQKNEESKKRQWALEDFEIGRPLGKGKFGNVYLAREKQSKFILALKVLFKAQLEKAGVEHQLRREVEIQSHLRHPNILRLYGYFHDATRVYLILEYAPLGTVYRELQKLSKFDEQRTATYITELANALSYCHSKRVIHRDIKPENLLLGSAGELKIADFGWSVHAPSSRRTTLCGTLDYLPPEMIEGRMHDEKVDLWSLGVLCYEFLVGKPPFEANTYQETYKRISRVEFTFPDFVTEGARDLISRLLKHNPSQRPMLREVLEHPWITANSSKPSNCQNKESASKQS", "excerpt": "as §1"}, "DYRK3": {"target": "T2, DYRK3 (Homo sapiens, UniProt O43781)", "T2 sequence (O43781 1-588)": "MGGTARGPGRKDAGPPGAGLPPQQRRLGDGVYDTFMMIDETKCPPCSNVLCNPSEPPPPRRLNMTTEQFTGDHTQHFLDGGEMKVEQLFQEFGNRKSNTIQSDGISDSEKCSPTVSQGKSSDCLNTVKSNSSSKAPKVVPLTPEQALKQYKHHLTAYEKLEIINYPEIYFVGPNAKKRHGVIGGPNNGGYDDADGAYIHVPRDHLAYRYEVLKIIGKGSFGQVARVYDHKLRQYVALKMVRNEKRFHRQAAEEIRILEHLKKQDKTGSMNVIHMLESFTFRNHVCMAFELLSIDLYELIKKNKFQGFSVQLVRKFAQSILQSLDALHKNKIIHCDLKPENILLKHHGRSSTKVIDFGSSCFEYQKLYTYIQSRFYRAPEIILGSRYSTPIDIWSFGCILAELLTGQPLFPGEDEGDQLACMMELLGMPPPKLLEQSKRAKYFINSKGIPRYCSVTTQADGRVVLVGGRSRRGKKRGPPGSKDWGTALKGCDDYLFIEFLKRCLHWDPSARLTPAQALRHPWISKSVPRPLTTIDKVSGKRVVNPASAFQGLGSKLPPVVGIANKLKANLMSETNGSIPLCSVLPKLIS", "excerpt": "as §1"}, "RSK2": {"target": "RSK2 (Homo sapiens, UniProt P51812)", "excerpt": "as §1"}, "PDGFRA": {"target": "PDGFRA (Homo sapiens, UniProt P16234)", "excerpt": "as §1"}, "Src": {"target": "Src (Homo sapiens, UniProt P12931)", "sequence (P12931 whole entry)": "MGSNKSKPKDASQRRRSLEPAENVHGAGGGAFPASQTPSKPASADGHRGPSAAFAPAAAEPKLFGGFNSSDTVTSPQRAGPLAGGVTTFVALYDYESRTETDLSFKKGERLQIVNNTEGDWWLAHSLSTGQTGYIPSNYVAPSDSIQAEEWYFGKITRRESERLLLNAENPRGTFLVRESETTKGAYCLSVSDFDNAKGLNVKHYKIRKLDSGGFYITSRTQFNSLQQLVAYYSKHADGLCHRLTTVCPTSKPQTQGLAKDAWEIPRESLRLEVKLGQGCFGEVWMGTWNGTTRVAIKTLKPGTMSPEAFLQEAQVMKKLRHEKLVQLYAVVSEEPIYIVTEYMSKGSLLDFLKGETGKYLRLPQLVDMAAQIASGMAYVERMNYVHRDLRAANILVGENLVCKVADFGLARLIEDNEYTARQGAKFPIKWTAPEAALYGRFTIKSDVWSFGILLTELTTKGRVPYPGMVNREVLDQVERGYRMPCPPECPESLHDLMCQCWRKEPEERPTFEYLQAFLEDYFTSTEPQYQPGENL", "excerpt": "as §1"}, "TBK1": {"target": "T3, TBK1 (Homo sapiens, UniProt Q9UHD2)", "T3 sequence (Q9UHD2 1-729)": "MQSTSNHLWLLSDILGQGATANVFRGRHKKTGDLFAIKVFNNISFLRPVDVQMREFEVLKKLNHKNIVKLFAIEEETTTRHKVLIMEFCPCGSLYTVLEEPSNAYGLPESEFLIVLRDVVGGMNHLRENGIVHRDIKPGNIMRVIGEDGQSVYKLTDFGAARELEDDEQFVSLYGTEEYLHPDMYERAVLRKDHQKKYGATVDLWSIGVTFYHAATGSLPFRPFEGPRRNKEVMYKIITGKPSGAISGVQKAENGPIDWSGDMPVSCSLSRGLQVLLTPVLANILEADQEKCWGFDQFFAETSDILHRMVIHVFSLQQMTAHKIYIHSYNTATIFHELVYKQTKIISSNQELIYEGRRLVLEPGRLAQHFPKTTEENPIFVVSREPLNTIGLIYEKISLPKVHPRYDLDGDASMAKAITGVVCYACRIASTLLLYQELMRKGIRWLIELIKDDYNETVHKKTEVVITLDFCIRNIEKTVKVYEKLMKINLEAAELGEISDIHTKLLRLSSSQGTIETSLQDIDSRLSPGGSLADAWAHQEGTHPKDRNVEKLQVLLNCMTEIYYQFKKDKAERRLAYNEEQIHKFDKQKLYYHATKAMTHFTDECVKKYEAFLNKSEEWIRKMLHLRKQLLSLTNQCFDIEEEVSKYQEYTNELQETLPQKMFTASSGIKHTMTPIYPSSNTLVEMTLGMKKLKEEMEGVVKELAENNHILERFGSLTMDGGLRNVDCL", "excerpt": "as §1"}, "ABL": {"target": "ABL (Homo sapiens, UniProt P00519)", "sequence (P00519 whole entry)": "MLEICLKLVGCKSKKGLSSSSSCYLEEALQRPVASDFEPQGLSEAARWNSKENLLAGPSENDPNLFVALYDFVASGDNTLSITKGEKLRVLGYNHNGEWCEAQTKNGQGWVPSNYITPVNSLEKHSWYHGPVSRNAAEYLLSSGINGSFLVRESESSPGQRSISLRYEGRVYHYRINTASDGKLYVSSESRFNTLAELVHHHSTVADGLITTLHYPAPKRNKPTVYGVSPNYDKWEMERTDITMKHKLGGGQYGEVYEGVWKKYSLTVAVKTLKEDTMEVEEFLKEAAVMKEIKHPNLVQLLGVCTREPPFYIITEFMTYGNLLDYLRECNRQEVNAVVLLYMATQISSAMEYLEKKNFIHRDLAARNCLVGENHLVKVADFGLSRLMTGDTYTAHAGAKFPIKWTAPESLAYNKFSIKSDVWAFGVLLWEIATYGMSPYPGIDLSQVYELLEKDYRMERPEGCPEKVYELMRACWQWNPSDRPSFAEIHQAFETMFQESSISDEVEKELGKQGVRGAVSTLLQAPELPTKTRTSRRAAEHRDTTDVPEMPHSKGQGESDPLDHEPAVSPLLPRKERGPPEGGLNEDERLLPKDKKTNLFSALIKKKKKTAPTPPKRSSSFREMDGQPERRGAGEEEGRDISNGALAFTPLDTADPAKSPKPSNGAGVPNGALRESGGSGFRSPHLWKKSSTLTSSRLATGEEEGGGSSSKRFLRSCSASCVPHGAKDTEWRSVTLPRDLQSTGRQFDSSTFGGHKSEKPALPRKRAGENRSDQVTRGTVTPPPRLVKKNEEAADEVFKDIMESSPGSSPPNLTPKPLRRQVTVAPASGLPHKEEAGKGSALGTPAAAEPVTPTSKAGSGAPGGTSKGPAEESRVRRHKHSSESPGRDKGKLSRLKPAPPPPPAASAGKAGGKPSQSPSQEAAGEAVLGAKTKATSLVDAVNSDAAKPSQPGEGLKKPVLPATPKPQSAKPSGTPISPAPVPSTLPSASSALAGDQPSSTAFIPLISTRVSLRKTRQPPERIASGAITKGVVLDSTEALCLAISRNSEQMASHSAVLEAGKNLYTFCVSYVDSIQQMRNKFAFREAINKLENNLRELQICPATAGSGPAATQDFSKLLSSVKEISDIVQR", "excerpt": "as §1"}, "IRR": {"target": "IRR (Homo sapiens, UniProt P14616)", "excerpt": "as §1"}, "IGF-1R": {"target": "IGF-1R (Homo sapiens, UniProt P08069)", "sequence (P08069 31-1367)": "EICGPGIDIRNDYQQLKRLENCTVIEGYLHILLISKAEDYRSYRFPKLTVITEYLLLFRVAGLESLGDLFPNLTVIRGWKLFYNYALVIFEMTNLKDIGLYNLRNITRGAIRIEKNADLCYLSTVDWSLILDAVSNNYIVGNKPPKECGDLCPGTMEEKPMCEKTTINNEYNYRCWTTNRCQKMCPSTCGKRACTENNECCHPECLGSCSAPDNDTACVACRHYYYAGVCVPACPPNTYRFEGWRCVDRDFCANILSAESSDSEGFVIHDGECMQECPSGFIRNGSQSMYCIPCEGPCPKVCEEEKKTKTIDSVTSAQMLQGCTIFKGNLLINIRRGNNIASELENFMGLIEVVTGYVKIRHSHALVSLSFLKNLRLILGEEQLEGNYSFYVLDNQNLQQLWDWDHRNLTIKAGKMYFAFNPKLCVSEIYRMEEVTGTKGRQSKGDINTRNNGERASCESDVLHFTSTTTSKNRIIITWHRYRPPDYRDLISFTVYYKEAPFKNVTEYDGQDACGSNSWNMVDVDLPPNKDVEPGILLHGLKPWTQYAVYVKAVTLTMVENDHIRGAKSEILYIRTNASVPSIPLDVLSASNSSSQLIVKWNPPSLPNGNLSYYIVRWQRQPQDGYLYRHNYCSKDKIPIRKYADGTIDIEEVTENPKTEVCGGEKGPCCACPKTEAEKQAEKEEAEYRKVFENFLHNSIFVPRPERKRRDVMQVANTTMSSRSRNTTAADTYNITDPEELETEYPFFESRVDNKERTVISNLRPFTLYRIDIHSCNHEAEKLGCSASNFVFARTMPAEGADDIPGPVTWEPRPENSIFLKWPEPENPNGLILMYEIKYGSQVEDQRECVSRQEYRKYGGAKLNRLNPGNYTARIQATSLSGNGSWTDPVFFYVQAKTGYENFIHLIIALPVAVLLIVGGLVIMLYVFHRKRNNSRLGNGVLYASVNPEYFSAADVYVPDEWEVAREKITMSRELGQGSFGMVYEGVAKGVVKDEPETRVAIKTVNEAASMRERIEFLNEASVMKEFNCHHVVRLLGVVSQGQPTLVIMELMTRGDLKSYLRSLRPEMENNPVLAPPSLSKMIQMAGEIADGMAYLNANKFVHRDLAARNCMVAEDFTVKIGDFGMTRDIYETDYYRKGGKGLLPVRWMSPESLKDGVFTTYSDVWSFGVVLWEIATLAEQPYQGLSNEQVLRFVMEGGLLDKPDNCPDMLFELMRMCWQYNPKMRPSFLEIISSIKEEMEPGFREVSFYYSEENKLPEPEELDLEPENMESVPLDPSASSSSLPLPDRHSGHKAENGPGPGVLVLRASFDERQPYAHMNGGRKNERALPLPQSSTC", "excerpt": "as §1"}, "PRK2": {"target": "PRK2 (Homo sapiens, UniProt Q16513)", "excerpt": "as §1"}, "CK1 gamma 2": {"target": "CK1 gamma 2 (Homo sapiens, UniProt P78368)", "sequence (P78368 whole entry)": "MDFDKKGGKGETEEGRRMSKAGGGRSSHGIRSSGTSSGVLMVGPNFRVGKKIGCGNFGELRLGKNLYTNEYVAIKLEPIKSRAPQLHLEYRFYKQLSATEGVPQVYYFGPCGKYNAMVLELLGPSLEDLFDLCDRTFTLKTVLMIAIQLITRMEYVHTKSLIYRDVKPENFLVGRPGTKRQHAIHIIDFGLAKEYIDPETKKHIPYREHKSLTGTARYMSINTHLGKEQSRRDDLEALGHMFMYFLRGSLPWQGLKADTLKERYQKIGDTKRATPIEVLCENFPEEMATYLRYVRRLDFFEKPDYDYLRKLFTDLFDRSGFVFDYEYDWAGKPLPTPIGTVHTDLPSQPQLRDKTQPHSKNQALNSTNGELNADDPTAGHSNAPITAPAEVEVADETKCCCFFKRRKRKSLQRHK", "excerpt": "as §1"}, "TGFBR1": {"target": "T4, TGFBR1 (Homo sapiens, UniProt P36897)", "T4 sequence (P36897 34-503)": "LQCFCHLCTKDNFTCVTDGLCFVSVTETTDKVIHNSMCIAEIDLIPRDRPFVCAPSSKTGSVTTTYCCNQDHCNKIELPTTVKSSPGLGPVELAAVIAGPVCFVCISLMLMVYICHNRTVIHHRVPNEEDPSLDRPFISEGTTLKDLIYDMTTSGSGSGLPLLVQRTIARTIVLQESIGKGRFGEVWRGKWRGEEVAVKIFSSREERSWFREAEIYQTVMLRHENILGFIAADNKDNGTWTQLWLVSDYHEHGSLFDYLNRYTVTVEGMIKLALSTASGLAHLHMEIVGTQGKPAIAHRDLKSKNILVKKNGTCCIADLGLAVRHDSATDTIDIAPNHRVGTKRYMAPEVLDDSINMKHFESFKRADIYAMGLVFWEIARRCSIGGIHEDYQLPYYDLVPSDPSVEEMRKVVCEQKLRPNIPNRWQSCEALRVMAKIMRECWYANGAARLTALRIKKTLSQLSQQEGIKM", "excerpt": "as §1"}},
  "note": "Where two headings read alike, the source gives them in different places.",
  "data": [
    {"compound": "COc1ccc(Cl)c(S(=O)(=O)Nc2ccc(-c3nc(OC[C@H]4CNCCO4)c4c(C)n[nH]c4n3)cc2)c1", "note": "[290-R, reference compound]", "values": [
      {"measurement": "remaining activity at 1 µM", "setting": "IR", "value": 102, "unit": "%"},
      {"measurement": "remaining activity at 1 µM", "setting": "Aurora A", "value": 108, "unit": "%"},
      {"measurement": "remaining activity at 1 µM", "setting": "DYRK3", "value": 89, "unit": "%"},
      {"measurement": "remaining activity at 1 µM", "setting": "RSK2", "value": 24, "unit": "%"},
      {"measurement": "remaining activity at 1 µM", "setting": "PDGFRA", "value": 91, "unit": "%"},
      {"measurement": "remaining activity at 1 µM", "setting": "Src", "value": 104, "unit": "%"},
      {"measurement": "remaining activity at 1 µM", "setting": "TBK1", "value": 62, "unit": "%"},
      {"measurement": "remaining activity at 1 µM", "setting": "ABL", "value": 88, "unit": "%"},
      {"measurement": "remaining activity at 1 µM", "setting": "IRR", "value": 96, "unit": "%"},
      {"measurement": "remaining activity at 1 µM", "setting": "IGF-1R", "value": 88, "unit": "%"},
      {"measurement": "remaining activity at 1 µM", "setting": "PRK2", "value": 76, "unit": "%"},
      {"measurement": "remaining activity at 1 µM", "setting": "CK1 gamma 2", "value": 112, "unit": "%"},
      {"measurement": "remaining activity at 1 µM", "setting": "TGFBR1", "value": 120, "unit": "%"}
    ]},
    {"compound": "Cc1ccc(F)c(S(=O)(=O)Nc2ccc(-c3nc(OC[C@H]4CNCCO4)c4cn[nH]c4n3)cc2)c1", "note": "[308-R, reference compound]", "values": [
      {"measurement": "remaining activity at 1 µM", "setting": "IR", "value": 110, "unit": "%"},
      {"measurement": "remaining activity at 1 µM", "setting": "Aurora A", "value": 109, "unit": "%"},
      {"measurement": "remaining activity at 1 µM", "setting": "DYRK3", "value": 99, "unit": "%"},
      {"measurement": "remaining activity at 1 µM", "setting": "RSK2", "value": 24, "unit": "%"},
      {"measurement": "remaining activity at 1 µM", "setting": "PDGFRA", "value": 115, "unit": "%"},
      {"measurement": "remaining activity at 1 µM", "setting": "Src", "value": 131, "unit": "%"},
      {"measurement": "remaining activity at 1 µM", "setting": "TBK1", "value": 83, "unit": "%"},
      {"measurement": "remaining activity at 1 µM", "setting": "ABL", "value": 96, "unit": "%"},
      {"measurement": "remaining activity at 1 µM", "setting": "IRR", "value": 106, "unit": "%"},
      {"measurement": "remaining activity at 1 µM", "setting": "IGF-1R", "value": 95, "unit": "%"},
      {"measurement": "remaining activity at 1 µM", "setting": "PRK2", "value": 82, "unit": "%"},
      {"measurement": "remaining activity at 1 µM", "setting": "CK1 gamma 2", "value": 67, "unit": "%"},
      {"measurement": "remaining activity at 1 µM", "setting": "TGFBR1", "value": 120, "unit": "%"}
    ]},
    {"compound": "Cc1ccc(F)c(S(=O)(=O)Nc2ccc(-c3nc(OC[C@H]4CN(CCCCCCOCCOCCOCC(=O)N[C@H](C(=O)N5C[C@H](O)C[C@H]5C(=O)NCc5ccc(-c6scnc6C)cc5)C(C)(C)C)CCO4)c4cn[nH]c4n3)cc2)c1", "note": "[SGK3-PROTAC1]", "values": [
      {"measurement": "remaining activity at 1 µM", "setting": "IR; 1 µM", "value": 103, "unit": "%"},
      {"measurement": "remaining activity at 1 µM", "setting": "Aurora A; 1 µM", "value": 90, "unit": "%"},
      {"measurement": "remaining activity at 1 µM", "setting": "DYRK3; 1 µM", "value": 102, "unit": "%"},
      {"measurement": "remaining activity at 1 µM", "setting": "RSK2; 1 µM", "value": 120, "unit": "%"},
      {"measurement": "remaining activity at 1 µM", "setting": "PDGFRA; 1 µM", "value": 101, "unit": "%"},
      {"measurement": "remaining activity at 1 µM", "setting": "Src; 1 µM", "value": 83, "unit": "%"},
      {"measurement": "remaining activity at 1 µM", "setting": "TBK1; 1 µM", "value": 93, "unit": "%"},
      {"measurement": "remaining activity at 1 µM", "setting": "ABL; 1 µM", "value": 111, "unit": "%"},
      {"measurement": "remaining activity at 1 µM", "setting": "IRR; 1 µM", "value": 103, "unit": "%"},
      {"measurement": "remaining activity at 1 µM", "setting": "IGF-1R; 1 µM", "value": 82, "unit": "%"},
      {"measurement": "remaining activity at 1 µM", "setting": "PRK2; 1 µM", "value": 105, "unit": "%"},
      {"measurement": "remaining activity at 1 µM", "setting": "CK1 gamma 2; 1 µM", "value": 101, "unit": "%"},
      {"measurement": "remaining activity at 1 µM", "setting": "TGFBR1; 1 µM", "value": 124, "unit": "%"}
    ]},
    {"compound": "Cc1ccc(F)c(S(=O)(=O)Nc2ccc(-c3nc(OC[C@H]4CN(CCCCCCOCCOCCOCC(=O)N[C@H](C(=O)N5C[C@@H](O)C[C@H]5C(=O)NCc5ccc(-c6scnc6C)cc5)C(C)(C)C)CCO4)c4cn[nH]c4n3)cc2)c1", "note": "[cisSGK3-PROTAC1]", "values": [
      {"measurement": "remaining activity at 1 µM", "setting": "IR; 1 µM", "value": 94, "unit": "%"},
      {"measurement": "remaining activity at 1 µM", "setting": "Aurora A; 1 µM", "value": 91, "unit": "%"},
      {"measurement": "remaining activity at 1 µM", "setting": "DYRK3; 1 µM", "value": 104, "unit": "%"},
      {"measurement": "remaining activity at 1 µM", "setting": "RSK2; 1 µM", "value": 109, "unit": "%"},
      {"measurement": "remaining activity at 1 µM", "setting": "PDGFRA; 1 µM", "value": 95, "unit": "%"},
      {"measurement": "remaining activity at 1 µM", "setting": "Src; 1 µM", "value": 87, "unit": "%"},
      {"measurement": "remaining activity at 1 µM", "setting": "TBK1; 1 µM", "value": 111, "unit": "%"},
      {"measurement": "remaining activity at 1 µM", "setting": "ABL; 1 µM", "value": 112, "unit": "%"},
      {"measurement": "remaining activity at 1 µM", "setting": "IRR; 1 µM", "value": 90, "unit": "%"},
      {"measurement": "remaining activity at 1 µM", "setting": "IGF-1R; 1 µM", "value": 93, "unit": "%"},
      {"measurement": "remaining activity at 1 µM", "setting": "PRK2; 1 µM", "value": 101, "unit": "%"},
      {"measurement": "remaining activity at 1 µM", "setting": "CK1 gamma 2; 1 µM", "value": 106, "unit": "%"},
      {"measurement": "remaining activity at 1 µM", "setting": "TGFBR1; 1 µM", "value": 114, "unit": "%"}
    ]}
  ]
}
